Experimental data taken from patent publication US20040127567A1, “Novel methods for treating disorders in which docosahexaenoic acid (DHA) levels are affected” (Beth Israel Deaconess Medical Center, Inc., priority 1998, published 2004).
“Also recorded” adds a separate entry of the source.

How the values were obtained:
Assay type in all cases: in vivo, mouse
[1] = Tolerability observations in mice given DHA
wild-type pregnant mice = experiment: DHA administration to wild-type pregnant mice: fetal lung surfactant (DPPC), fetal lung and brain DHA
From the text: The invention also provides a method for improving the amount of fetal lung surfactant in a mouse model. It appears that this is accomplished by upregulating fetal lung surfactant biosynthesis during pregnancy. This method again utilizes giving high doses of DHA which increases DHA and fetal surfactant levels in the fetal lung. Gestation in mice lasts about 19.5 days and previous reports have shown that surfactant levels in amniotic fluid are not detected until after day 16.5, equivalent to about 30 to 32 weeks gestational age in humans. Wild-type C57 mice were bred and identification of the cervical plug was used to determine the occurrence of pregnancy and gestational age. Beginning on day 9.5 of pregnancy (equivalent to about 24 weeks of gestational age in humans), mice were placed on Peptamen™ ±DHA for one week at different doses and sacrificed on day 16.5. Following sacrifice, amniotic fluid was aspirated from the amniotic sacs, and DPPC concentration determined by micro-HPTLC. In a different set of experiments, fetal lung and brain were removed, homogenized, lipids extracted with chloroform-methanol, and fatty acids transmethylated and analyzed by gas chromatography.

wild-type mice [2] = experiment: DHA and AA levels in plasma, red blood cells and pancreas following DHA therapy; settings: 40 mg DHA/day
Experimental: In this Example, levels of DHA and AA in various blood components following administration of 40 mg DHA/day to mice was determined. In particular, 40 mg DHA was given to wild type mice and levels of DHA (Table 11) and AA (Table 12) were measured in plasma, red blood cells (RBC), and the pancreas. […] Accordingly, either plasma or red blood cell levels of DHA and AA (and their ratios) can be used as a diagnostic or to determine the effectiveness of treatment in the pancreas and other affected organs.

wild-type mice [3] = experiment: Pancreas and ileum morphology in wild-type mice; settings: 40 mg/day for one week
Experimental: The morphology of various organs were also studied. Sample preparation were carried out as follows: 1-2 cm of ileum adjacent to the cecum was fixed in formalin, embedded in paraffin, cut in cross-section, and stained with hematoxylin/eosin. For pancreatic analyses, 2-3 mm pieces of pancreas were fixed for 1.5 h in 2% glutaraldehyde in 0.2M cacodylate buffer. Tissue samples were then washed in 0.2M cacodylate buffer and subsequently postfixed for 1 h in 1% osmium tetroxide in 0.1 M cacodylate buffer. Tissue was embedded in epon and thick sections stained with 1% toluidine blue.
(§1) Morphometry: For measurement of ileal villus height or pancreatic luminal diameter, multiple images were randomly taken at 200× using a Nikon Microphot-SA microscope equipped with a Diagnostic Instruments, Inc., Spot Digitizing System. Images were examined in a blinded fashion by two independent observers. Quantitation was performed using NIH Imaging Software. The differences between the means in the groups tested were evaluated using the Student's t-test.

CFTR−/− mice = experiment: Ileal villus height in CFTR−/− mice; settings: 40 mg/day
Experimental: CF and WT mice were fed as outlined in the method section above. Ileal height, i.e., the villi height in the ileum, was measured in CF knockout animals treated with either Peptamen™ alone, Peptamen™ +40 mg per day DHA, or Wild Type (WT) animals treated with Peptamen™ alone. Animals were sacrificed at 50 days of age, ileum fixed in paraformaldehyde, and the height measured on micrographs at 100×. […] The results are outlined in FIG. 2. […] Statistically significant differences (p<0.005) were found between wild-type and CF mice as well as between CF+40 mg DHA/day and CF. There was no statistically significant difference between WT and CF+40 mg DHA/day. […]
as §1, with “Images were examined in a blinded fashion by two independent observers.” left out
Thus, the morphologic and morphometric studies utilized with the pancreas were also performed on the ileum. Tissue from the wild type and CFTR−/− mice was prepared for light microscopy and sections analyzed at 200×. […] Morphometric analysis is shown in FIG. 8, the villous height was quantitated using NIH image software and expressed as mean […]±S.D. (n=6). […]

[4] = day 16.5, 20 mg/day DHA to the pregnant mouse from day 9.5

## CC/C=C\C/C=C\C/C=C\C/C=C\C/C=C\C/C=C\CCC(=O)O [DHA, docosahexaenoic acid]
[1]; CFTR−/− or wild-type mice, 40 mg per day of DHA
  Diarrhea: No overt diarrhea
[1]; treated pregnant mice and their newborns, monitored for up to one month
  Side effects: no obvious long-term side effects; also recorded: no observed side effects
wild-type pregnant mice; 10 or 20 mg DHA/day to preterm wild-type pregnant mice
  DHA in fetal brain (in words): significant increase in DHA in fetal brain
wild-type pregnant mice; day 16.5, 5 mg/day DHA from day 9.5
  DPPC concentration in amniotic fluid: 9.3 ± 2.6 µg/mL
wild-type pregnant mice; day 16.5, 10 mg/day DHA to the pregnant mouse from day 9.5
  DHA concentration in fetal brain: 15.6 ± 1.1 nmoles/mg protein
wild-type pregnant mice; day 16.5, 20 mg/day DHA from day 9.5
  DPPC concentration in amniotic fluid: 18.0 ± 3.6 µg/mL
wild-type pregnant mice; [4]
  DHA concentration in fetal brain: 28.9 ± 1.9 nmoles/mg protein
  DHA concentration in fetal lung: 29.8 ± 5.5 nmoles/mg protein
wild-type pregnant mice; pregnant mice
  Placental transfer: readily crosses the placenta
wild-type mice [2]; day 2
  Phospholipid-bound AA level in RBC: 10.1 nmoles/100 million cells
  Phospholipid-bound AA level in pancreas: 262 nmoles per total extract
  Phospholipid-bound AA level in plasma: 227 µg/mL
  Phospholipid-bound DHA level in pancreas: 67.8 nmoles per total extract
wild-type mice [2]; day 4
  Phospholipid-bound AA level in RBC: 6.2 nmoles/100 million cells
  Phospholipid-bound AA level in pancreas: 139 nmoles per total extract
  Phospholipid-bound AA level in plasma: 123 µg/mL
  Phospholipid-bound DHA level in pancreas: 101.0 nmoles per total extract
wild-type mice [2]; day 7
  Phospholipid-bound AA level in RBC: 3.7 nmoles/100 million cells
  Phospholipid-bound AA level in pancreas: 104 nmoles per total extract
  Phospholipid-bound AA level in plasma: 84 µg/mL
  Phospholipid-bound DHA level in pancreas: 125 nmoles per total extract

## CC/C=C\C/C=C\C/C=C\CCCCCCCC(=O)O [LNA, α-linolenic acid, reference compound]
wild-type mice [3]
  Effect on pancreas morphology (in words): did not produce and observable effects on pancreas morphology
wild-type mice [3]; listed as 18:3n-3
  Effect on pancreas morphology (in words): did not produce any observable effects on pancreas morphology
CFTR−/− mice
  Effect on ileal/intestinal villus height (in words): increased intestinal villi height
